# Measured values: PubChem BioAssay (NCI)
#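 A five-concentration, 48-hour dose response in 96-well plates underlies each endpoint, interpolated linearly between surrounding concentrations. GI50 is the concentration that inhibits growth by half. The concentration for full growth arrest is given as TGI.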
# Key:
# Assay in all cases: NCI anticancer screen, dose series, 48 h
# 786-0 renal = test system: 786-0 renal
# SNB-75 CNS = test system: SNB-75 CNS
# SK-MEL-2 melanoma = test system: SK-MEL-2 melanoma
# HT29 colon = test system: HT29 colon
# HOP-92 NSCLC = test system: HOP-92 NSCLC
# MDA-MB-435 = test system: MDA-MB-435
# NCI-H522 lung = test system: NCI-H522 lung
# K-562 leukemia = test system: K-562 leukemia
# HOP-62 NSCLC = test system: HOP-62 NSCLC
# SF-539 CNS = test system: SF-539 CNS
# HCC-2998 colon = test system: HCC-2998 colon
# SW-620 colon = test system: SW-620 colon
# SN12C renal = test system: SN12C renal
# SR leukemia = test system: SR leukemia
# DU-145 prostate = test system: DU-145 prostate
# MCF7 breast = test system: MCF7 breast
# NCI-H460 lung = test system: NCI-H460 lung
# HCT-15 colon = test system: HCT-15 colon
# KM12 colon = test system: KM12 colon
# HL-60(TB) leukemia = test system: HL-60(TB) leukemia
# NCI/ADR-RES ovarian = test system: NCI/ADR-RES ovarian
# PC-3 prostate = test system: PC-3 prostate
# NCI-H226 lung = test system: NCI-H226 lung
# U251 CNS = test system: U251 CNS
# TK-10 renal = test system: TK-10 renal
# SNB-19 CNS = test system: SNB-19 CNS
# UACC-62 melanoma = test system: UACC-62 melanoma
# UACC-257 melanoma = test system: UACC-257 melanoma
# MALME-3M melanoma = test system: MALME-3M melanoma
# OVCAR-4 ovarian = test system: OVCAR-4 ovarian
# OVCAR-5 ovarian = test system: OVCAR-5 ovarian
# MDA-MB-231 breast = test system: MDA-MB-231 breast
# A498 renal = test system: A498 renal
# SF-295 CNS = test system: SF-295 CNS
# SK-MEL-28 melanoma = test system: SK-MEL-28 melanoma
# CCRF-CEM leukemia = test system: CCRF-CEM leukemia
# SF-268 CNS = test system: SF-268 CNS
# NCI-H23 lung = test system: NCI-H23 lung
# RPMI-8226 leukemia = test system: RPMI-8226 leukemia
# UO-31 renal = test system: UO-31 renal
# EKVX NSCLC = test system: EKVX NSCLC
# BT-549 breast = test system: BT-549 breast
# OVCAR-8 ovarian = test system: OVCAR-8 ovarian
# MOLT-4 leukemia = test system: MOLT-4 leukemia
# LOX IMVI melanoma = test system: LOX IMVI melanoma
# T-47D breast = test system: T-47D breast
# OVCAR-3 ovarian = test system: OVCAR-3 ovarian
# SK-OV-3 ovarian = test system: SK-OV-3 ovarian
# A549 NSCLC = test system: A549 NSCLC
# M14 melanoma = test system: M14 melanoma
# HCT-116 colon = test system: HCT-116 colon
# CAKI-1 renal = test system: CAKI-1 renal
# COLO 205 colon = test system: COLO 205 colon
# ACHN renal = test system: ACHN renal
# HS 578T breast = test system: HS 578T breast
# IGROV1 ovarian = test system: IGROV1 ovarian
# SK-MEL-5 melanoma = test system: SK-MEL-5 melanoma
compound,measurement,setting,value
Oc1cccc(-c2nc(-c3n[nH]c(=S)n3-c3ccccc3)cc3c2[nH]c2ccccc23)c1,GI50,786-0 renal,3.19 µM
same,TGI,786-0 renal,11 µM
same,GI50,SNB-75 CNS,1.72 µM
same,TGI,SNB-75 CNS,5.89 µM
same,GI50,SK-MEL-2 melanoma,1.88 µM
same,TGI,SK-MEL-2 melanoma,6.08 µM
same,GI50,HT29 colon,2.55 µM
same,TGI,HT29 colon,6.18 µM
same,GI50,HOP-92 NSCLC,4.31 µM
same,TGI,HOP-92 NSCLC,18.1 µM
same,GI50,MDA-MB-435,1.26 µM
same,TGI,MDA-MB-435,4.5 µM
same,GI50,NCI-H522 lung,1.8 µM
same,TGI,NCI-H522 lung,4.98 µM
same,GI50,K-562 leukemia,3.16 µM
same,TGI,K-562 leukemia,21.6 µM
same,GI50,HOP-62 NSCLC,2.24 µM
same,TGI,HOP-62 NSCLC,7.96 µM
same,GI50,SF-539 CNS,1.8 µM
same,TGI,SF-539 CNS,3.96 µM
same,GI50,HCC-2998 colon,2.17 µM
same,TGI,HCC-2998 colon,4.53 µM
same,GI50,SW-620 colon,3.63 µM
same,TGI,SW-620 colon,11.9 µM
same,GI50,SN12C renal,4.03 µM
same,TGI,SN12C renal,15.5 µM
same,GI50,SR leukemia,3.07 µM
same,TGI,SR leukemia,> 100 µM
same,GI50,DU-145 prostate,2.57 µM
same,TGI,DU-145 prostate,7.02 µM
same,GI50,MCF7 breast,3.37 µM
same,TGI,MCF7 breast,13.6 µM
same,GI50,NCI-H460 lung,3.1 µM
same,TGI,NCI-H460 lung,9.5 µM
same,GI50,HCT-15 colon,2.88 µM
same,TGI,HCT-15 colon,10.9 µM
same,GI50,KM12 colon,3.15 µM
same,TGI,KM12 colon,11.7 µM
same,GI50,HL-60(TB) leukemia,3.38 µM
same,TGI,HL-60(TB) leukemia,8.98 µM
same,GI50,NCI/ADR-RES ovarian,13.2 µM
same,TGI,NCI/ADR-RES ovarian,69.7 µM
same,GI50,PC-3 prostate,2.63 µM
same,TGI,PC-3 prostate,10.9 µM
same,GI50,NCI-H226 lung,3.92 µM
same,TGI,NCI-H226 lung,18.6 µM
same,GI50,U251 CNS,2.98 µM
same,TGI,U251 CNS,11 µM
same,GI50,TK-10 renal,4.08 µM
same,TGI,TK-10 renal,16.3 µM
same,GI50,SNB-19 CNS,3.11 µM
same,TGI,SNB-19 CNS,11.4 µM
same,GI50,UACC-62 melanoma,2.4 µM
same,TGI,UACC-62 melanoma,8.77 µM
same,GI50,UACC-257 melanoma,3.22 µM
same,TGI,UACC-257 melanoma,9.88 µM
same,GI50,MALME-3M melanoma,4.05 µM
same,TGI,MALME-3M melanoma,17.4 µM
same,GI50,OVCAR-4 ovarian,3.79 µM
same,TGI,OVCAR-4 ovarian,17.3 µM
same,GI50,OVCAR-5 ovarian,4.38 µM
same,TGI,OVCAR-5 ovarian,15.7 µM
same,GI50,MDA-MB-231 breast,3.19 µM
same,TGI,MDA-MB-231 breast,13 µM
same,GI50,A498 renal,2.15 µM
same,TGI,A498 renal,5.8 µM
same,GI50,SF-295 CNS,2.16 µM
same,TGI,SF-295 CNS,5.75 µM
same,GI50,SK-MEL-28 melanoma,1.81 µM
same,TGI,SK-MEL-28 melanoma,7.28 µM
same,GI50,CCRF-CEM leukemia,3.85 µM
same,TGI,CCRF-CEM leukemia,18.7 µM
same,GI50,SF-268 CNS,3.56 µM
same,TGI,SF-268 CNS,14.7 µM
same,GI50,NCI-H23 lung,3.97 µM
same,TGI,NCI-H23 lung,19.7 µM
same,GI50,RPMI-8226 leukemia,2.69 µM
same,TGI,RPMI-8226 leukemia,7.86 µM
same,GI50,UO-31 renal,2.09 µM
same,TGI,UO-31 renal,11.7 µM
same,GI50,EKVX NSCLC,4 µM
same,TGI,EKVX NSCLC,23.4 µM
same,GI50,BT-549 breast,2.67 µM
same,TGI,BT-549 breast,6.8 µM
same,GI50,OVCAR-8 ovarian,3.09 µM
same,TGI,OVCAR-8 ovarian,8.83 µM
same,GI50,MOLT-4 leukemia,3.78 µM
same,TGI,MOLT-4 leukemia,14 µM
same,GI50,LOX IMVI melanoma,1.8 µM
same,TGI,LOX IMVI melanoma,3.83 µM
same,GI50,T-47D breast,2.14 µM
same,TGI,T-47D breast,8.18 µM
same,GI50,OVCAR-3 ovarian,2.18 µM
same,TGI,OVCAR-3 ovarian,5.73 µM
same,GI50,SK-OV-3 ovarian,3.02 µM
same,TGI,SK-OV-3 ovarian,8.72 µM
same,GI50,A549 NSCLC,2.89 µM
same,TGI,A549 NSCLC,11.1 µM
same,GI50,M14 melanoma,2.72 µM
same,TGI,M14 melanoma,10.3 µM
same,GI50,HCT-116 colon,3.28 µM
same,TGI,HCT-116 colon,9.82 µM
same,GI50,CAKI-1 renal,2.81 µM
same,TGI,CAKI-1 renal,11.9 µM
same,GI50,COLO 205 colon,2.45 µM
same,TGI,COLO 205 colon,7.22 µM
same,GI50,ACHN renal,3.95 µM
same,TGI,ACHN renal,14.6 µM
same,GI50,HS 578T breast,3.43 µM
same,TGI,HS 578T breast,24.6 µM
same,GI50,IGROV1 ovarian,2.29 µM
same,TGI,IGROV1 ovarian,11.2 µM
same,GI50,SK-MEL-5 melanoma,3.15 µM
same,TGI,SK-MEL-5 melanoma,11 µM
